Values of other authors as cited in patent US6656915B1, “Inhibiting T-cell proliferation” (Biocryst Pharmaceuticals, Inc., priority 1999, dated 2003).
Where two headings read alike, the source gives them in different places. One block for each compound: values may come before it.

Key:
[1] = system: peripheral blood lymphocytes; details: dogs
[2] = system: peripheral blood lymphocytes; details: rats
[3] = upon being administered to a host, alone
T-cells [4] = details: rats; given with 2′-deoxyguanosine
[5] = system: human T-cells (CCRF-CEM and Molt-4 cells); details: given with 2′-deoxyguanosine; CCRF-CEM and Molt-4 cells in cultures
PNP = PNP (Homo sapiens, UniProt P00491); details: humans; indicating effective inhibition of PNP
T-cells [6] = details: humans; PNP inhibitor without exogenous 2′-deoxyguanosine
[7] = 2′-deoxyguanosine alone, without PNP inhibition

Sequence of PNP (P00491 whole entry): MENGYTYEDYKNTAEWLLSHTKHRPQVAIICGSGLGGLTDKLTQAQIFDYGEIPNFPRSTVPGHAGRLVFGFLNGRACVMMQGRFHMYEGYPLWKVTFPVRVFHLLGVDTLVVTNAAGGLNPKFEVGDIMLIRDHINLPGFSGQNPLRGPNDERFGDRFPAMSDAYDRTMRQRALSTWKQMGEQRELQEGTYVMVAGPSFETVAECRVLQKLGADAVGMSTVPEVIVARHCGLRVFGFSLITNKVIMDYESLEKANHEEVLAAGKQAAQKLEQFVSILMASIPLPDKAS

- degradation of exogenous 2′-deoxyguanosine [3]: rapidly degrades
SMILES: Nc1nc2c(ncn2[C@H]2C[C@H](O)[C@@H](CO)O2)c(=O)[nH]1 [2′-deoxyguanosine]
- cell counts (lymphopenia) [1, 7]: did not significantly decrease cell counts
- cell counts (lymphopenia) [2, 7]: did not significantly decrease cell counts

SMILES: Nc1nc2c(nc(N)n2[C@@H]2O[C@H](CO)[C@@H](O)[C@H]2O)c(=O)[nH]1 [8-Aminoguanosine, reference compound]
- peripheral blood lymphocytes ([1]; given with 2′-deoxyguanosine): profound fall
- peripheral blood lymphocytes ([2]; given with 2′-deoxyguanosine): profound fall
- levels of 2′-deoxyguanosine triphosphate (dGTP) in T-cells (T-cells [4]): increased levels

SMILES: Nc1nc2nc(N)[nH]c2c(=O)[nH]1 [8-Aminoguanine]
- proliferation of human T-cells [5]: inhibits the proliferation

- plasma inosine levels (PNP): increases plasma inosine levels
SMILES: Nc1nc2c(Cc3cccnc3)c[nH]c2c(=O)[nH]1 [9-(3-Pyridylmethyl)-9-deazaguanine]
- T-cell counts (T-cells [6]): did not reduce T-cell counts
